Measured values from US6855512B2, “Methods for identifying inhibitors of cytochrome P450RAI” (Allergan, Inc., priority 2000, dated 2005).

What was measured:
RARα [1] = target: T1, RARα (Homo sapiens, UniProt P10276); experiment: ligand binding assay, RARα; conditions: Kd line of EC50/(EFFICACY)/Kd, K = thousand, read-out: RAR α Kd
T1 sequence (P10276 1-462): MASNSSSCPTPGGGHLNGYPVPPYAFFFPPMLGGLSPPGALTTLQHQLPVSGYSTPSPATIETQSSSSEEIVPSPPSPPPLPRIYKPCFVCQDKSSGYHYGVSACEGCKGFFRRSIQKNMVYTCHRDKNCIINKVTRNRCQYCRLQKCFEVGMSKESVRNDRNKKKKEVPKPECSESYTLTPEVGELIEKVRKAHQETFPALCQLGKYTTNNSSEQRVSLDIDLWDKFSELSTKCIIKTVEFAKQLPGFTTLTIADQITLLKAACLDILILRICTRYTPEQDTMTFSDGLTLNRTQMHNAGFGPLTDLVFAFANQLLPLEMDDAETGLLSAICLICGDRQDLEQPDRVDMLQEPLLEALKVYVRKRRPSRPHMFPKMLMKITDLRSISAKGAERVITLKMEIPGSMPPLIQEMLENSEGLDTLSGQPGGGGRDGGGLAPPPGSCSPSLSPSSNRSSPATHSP
Description: (§1) Assays described below measure the ability of a compound to bind to, and/or activate various retinoid receptor subtypes. When in these assays a compound binds to a given receptor subtype and activates the transcription of a reporter gene through that subtype, then the compound is considered an agonist of that receptor subtype. […] In the below described assays the ability of the compounds to bind to RARα, RARβ, RARγ, RXRα, RXRβ and RXRγ receptors, and the ability or inability of the compounds to activate transcription of a reporter gene through these receptor subtypes can be tested.
(§2) The results obtained in this assay are expressed in EC50 numbers, as they are also in the chimeric receptor transactivation assay. The results of ligand binding assay are expressed in Kd numbers.

RARγ [2] = target: T2, RARγ (Homo sapiens, UniProt P13631); experiment: chimeric receptor transactivation assay, RARγ; assay type: cell-based; conditions: EC50 line of EC50/(EFFICACY)/Kd, read-out: RAR γ EC50
T2 sequence (P13631 185-454 limits assumed): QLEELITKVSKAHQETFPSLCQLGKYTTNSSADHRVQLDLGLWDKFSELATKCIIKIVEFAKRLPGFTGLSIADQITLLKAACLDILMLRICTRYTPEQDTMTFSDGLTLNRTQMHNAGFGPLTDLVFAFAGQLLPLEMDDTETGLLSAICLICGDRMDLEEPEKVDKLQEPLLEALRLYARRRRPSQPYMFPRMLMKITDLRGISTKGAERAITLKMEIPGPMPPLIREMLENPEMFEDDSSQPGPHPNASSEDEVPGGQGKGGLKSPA
Description: as §1, §2

RARγ [3] = target: T3, RARγ (Homo sapiens, UniProt P13631); experiment: ligand binding assay, RARγ; conditions: Kd line of EC50/(EFFICACY)/Kd, K = thousand, read-out: RAR γ Kd
T3 sequence (P13631 1-454): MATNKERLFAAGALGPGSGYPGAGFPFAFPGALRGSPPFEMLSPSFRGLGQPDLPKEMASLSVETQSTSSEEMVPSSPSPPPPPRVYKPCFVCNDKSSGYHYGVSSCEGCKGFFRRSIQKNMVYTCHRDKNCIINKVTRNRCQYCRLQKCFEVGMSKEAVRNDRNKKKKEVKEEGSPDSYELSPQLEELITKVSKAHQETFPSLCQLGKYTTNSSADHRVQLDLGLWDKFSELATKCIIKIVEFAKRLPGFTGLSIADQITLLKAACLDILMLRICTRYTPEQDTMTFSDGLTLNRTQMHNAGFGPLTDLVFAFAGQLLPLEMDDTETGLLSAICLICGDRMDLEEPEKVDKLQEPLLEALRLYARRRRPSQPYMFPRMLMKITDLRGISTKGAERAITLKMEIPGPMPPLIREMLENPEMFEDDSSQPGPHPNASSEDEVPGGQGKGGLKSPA
Description: as §1, §2

RARβ [4] = target: T4, RARβ (Homo sapiens, UniProt P10826); experiment: ligand binding assay, RARβ; conditions: Kd line of EC50/(EFFICACY)/Kd, K = thousand, read-out: RAR β Kd
T4 sequence (P10826 1-455): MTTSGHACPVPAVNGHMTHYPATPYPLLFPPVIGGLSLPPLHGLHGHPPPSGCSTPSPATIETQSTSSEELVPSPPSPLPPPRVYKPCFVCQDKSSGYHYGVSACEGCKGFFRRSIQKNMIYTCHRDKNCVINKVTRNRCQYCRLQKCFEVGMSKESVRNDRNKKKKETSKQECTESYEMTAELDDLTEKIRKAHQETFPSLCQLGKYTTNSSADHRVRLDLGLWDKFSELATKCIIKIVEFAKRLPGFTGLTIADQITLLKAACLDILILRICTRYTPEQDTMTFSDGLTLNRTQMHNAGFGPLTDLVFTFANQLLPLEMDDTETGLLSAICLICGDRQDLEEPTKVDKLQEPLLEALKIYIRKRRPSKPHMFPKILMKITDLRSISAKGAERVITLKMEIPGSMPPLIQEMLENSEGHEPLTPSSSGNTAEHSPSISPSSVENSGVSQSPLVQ
Description: as §1, §2

RARα [5] = target: T5, RARα (Homo sapiens, UniProt P10276); experiment: chimeric receptor transactivation assay, RARα; assay type: cell-based; conditions: EC50 line of EC50/(EFFICACY)/Kd, read-out: RAR α EC50
T5 sequence (P10276 183-417 limits assumed): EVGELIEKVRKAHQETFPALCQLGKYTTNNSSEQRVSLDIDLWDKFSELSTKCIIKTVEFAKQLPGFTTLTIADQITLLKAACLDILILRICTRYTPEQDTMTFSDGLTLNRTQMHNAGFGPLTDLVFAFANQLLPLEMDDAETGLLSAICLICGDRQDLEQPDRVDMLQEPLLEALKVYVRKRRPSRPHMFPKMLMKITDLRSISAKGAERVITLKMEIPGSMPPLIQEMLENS
Description: as §1, §2

RARβ [6] = target: T6, RARβ (Homo sapiens, UniProt P10826); experiment: chimeric receptor transactivation assay, RARβ; assay type: cell-based; conditions: EC50 line of EC50/(EFFICACY)/Kd, read-out: RAR β EC50
T6 sequence (P10826 183-417 limits assumed): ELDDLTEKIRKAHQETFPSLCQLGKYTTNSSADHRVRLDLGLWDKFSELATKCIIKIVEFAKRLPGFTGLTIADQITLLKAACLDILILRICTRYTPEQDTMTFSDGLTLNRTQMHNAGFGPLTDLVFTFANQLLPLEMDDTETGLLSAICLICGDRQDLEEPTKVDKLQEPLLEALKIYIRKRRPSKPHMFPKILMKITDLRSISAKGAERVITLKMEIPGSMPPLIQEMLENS
Description: as §1, §2

Molecule `CC1(C)CCSc2ccc(C#Cc3ccc(CCC(=O)O)cc3)cc21` [Compound 210] has a Kd (RARα [1]) of 10000 nM, an EC50 (RARγ [2]) of 15 nM and a Kd (RARγ [3]) of 10000 nM. For the same molecule, the Kd (RARβ [4]) was 2890 nM, the EC50 (RARα [5]) was 89 nM and the EC50 (RARβ [6]) was 18 nM.
